The target in series [1] is T1, P2X purinoceptor 3 (Rattus norvegicus) (UniProt P49654).
T1 sequence (whole entry): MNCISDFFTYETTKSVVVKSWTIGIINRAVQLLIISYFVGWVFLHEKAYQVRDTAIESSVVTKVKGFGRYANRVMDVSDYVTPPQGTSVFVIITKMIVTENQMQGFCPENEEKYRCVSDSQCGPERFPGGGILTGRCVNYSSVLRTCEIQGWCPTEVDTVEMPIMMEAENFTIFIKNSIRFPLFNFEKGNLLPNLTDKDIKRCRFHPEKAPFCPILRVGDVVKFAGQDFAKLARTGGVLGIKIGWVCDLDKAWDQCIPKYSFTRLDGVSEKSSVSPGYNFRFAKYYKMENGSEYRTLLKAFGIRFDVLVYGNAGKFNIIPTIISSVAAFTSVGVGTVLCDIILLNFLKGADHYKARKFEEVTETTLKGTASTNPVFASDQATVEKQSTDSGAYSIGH
The series can be described thus: Antagonist activity against rat P2X3 receptor expressed in CHOK1 cells assessed as inhibition of alpha,beta-meATP-induced calcium response incubated for 20 mins by Fluo-3AM dye based FLIPR assay. Format: functional, cell-based. Conditions: CHO-K1.

The subject of series [2] is Rattus norvegicus. The series can be described thus: AUC in Crl:WI(GLx/BRL/Han)IGS BR(Hanover-Wistar) rat assessed as (5-(5-Iodo-2-isopropyl-4-methoxy-phenoxy)-pyrimidine-2,4-diamine) level at 0.127 mmol, po after 0.5 to 24 hrs by HPLC method. It is filed as ADME, organism-based. More on the design: time upper 24 hr, time lower 0.5 hr, dose 0.127 mmol, route oral. Particulars: in vivo.

Series [3] relates to Rattus norvegicus. The series can be described thus: Cmax in Crl:WI(GLx/BRL/Han)IGS BR(Hanover-Wistar) rat assessed as (5-(5-Iodo-2-isopropyl-4-methoxy-phenoxy)-pyrimidine-2,4-diamine) level at 0.127 mmol, po after 0.5 to 24 hrs by HPLC method. It is filed as ADME, organism-based. More on the design: dose 0.127 mmol, route oral. Conditions: in vivo.

The structures appear in SMILES notation. Active and inactive are the calls of the source. How the calls were made is not given here.

For the compound `COc1cc(C(C)C)c(Oc2cnc(NC(=O)C(C)(C)C)nc2N)cc1I`, the inhibition entry in series [1] is “Active”.
Same read-out and setting: for `CC[C@@H](C)[C@@H](N)C(=O)Nc1nc(N)ncc1Oc1cc(I)c(OC)cc1C(C)C` the value was “Active”; for `COc1cc(C(C)C)c(Oc2cnc(NC(=O)c3ccccc3)nc2N)cc1I`, “Active”.
Still for that read-out and setting: next, `CCOC(=O)Nc1ncc(Oc2cc(I)c(OC)cc2C(C)C)c(NC(=O)OCC)n1`: “Active”.
Still for that read-out and setting: for `COc1cc(C(C)C)c(Oc2cnc(NC(=O)c3cccnc3)nc2N)cc1I` the value was “Active”; for `C#Cc1cc(Oc2cnc(N)nc2NC(=O)c2ccccc2)c(C(C)C)cc1OC`, “Active”.
As for `C#Cc1cc(Oc2cnc(N)nc2NC(=O)c2cccn2C)c(C(C)C)cc1OC`, the inhibition result in series [1] was “Active”.
The same measure, in the same setting: next, `COc1cc(C(C)C)c(Oc2cnc(NC(=O)C(C)C)nc2NC(=O)C(C)C)cc1I`: “Active”.
Still for that read-out and setting: next, `COc1cc(C(C)C)c(Oc2cnc(NC(C)=O)nc2N)cc1I`: “Active”.
On the same count and under the same terms, next, `COc1cc(C(C)C)c(Oc2cnc(NC(=O)[C@@H]3CCCO3)nc2N)cc1I`: “Active”; `COc1cc(C(C)C)c(Oc2cnc(NC(=O)C3CCN(C)CC3)nc2N)cc1I`: “Active”; `COc1cc(C(C)C)c(Oc2cnc(N)nc2NC(=O)c2cnc[nH]2)cc1I`: “Active”.
As to `C#Cc1cc(Oc2cnc(NC(=O)C(C)(C)C)nc2NC(=O)C(C)(C)C)c(C(C)C)cc1OC`, in series [1], the inhibition result is “Active”.
For `COc1cc(C(C)C)c(Oc2cnc(NC(=O)C(C)C)nc2N)cc1I`, in the series on Rattus norvegicus [2], the area under the curve (AUC) is 200 ng·h/mL. Moreover, the highest concentration (Cmax) in the series on Rattus norvegicus [3] is 61.9 ng/mL.
On to `COCC(=O)Nc1ncc(Oc2cc(I)c(OC)cc2C(C)C)c(N)n1`, for which the inhibition result in series [1] was “Active”.
As for `COc1cc(C(C)C)c(Oc2cnc(NC(=O)CC(C)C)nc2N)cc1I`, in series [1], the inhibition result is “Active”.
Same read-out and setting: next, `COc1cc(C(C)C)c(Oc2cnc(NC(=O)N3CCOCC3)nc2NC(=O)N2CCOCC2)cc1I`: “Active”.
On to `COc1cc(C(C)C)c(Oc2cnc(N)nc2NC(=O)c2ccccn2)cc1I`, for which the inhibition entry in series [1] is “Active”.
Same read-out and setting: for `COCCOCC(=O)Nc1ncc(Oc2cc(I)c(OC)cc2C(C)C)c(N)n1` the value was “Active”.
Still for that read-out and setting: next, `COc1cc(C(C)C)c(Oc2cnc(N)nc2NC(=O)c2cnc(C)cn2)cc1I`: “Active”; `COc1cc(C(C)C)c(Oc2cnc(N)nc2NC(=O)c2ccco2)cc1I`: “Active”.
The same measure, in the same setting: next, `COc1cc(C(C)C)c(Oc2cnc(NC(=O)C3CCN(C(C)=O)CC3)nc2NC(=O)C2CCN(C(C)=O)CC2)cc1I`: “Active”; `COc1cc(C(C)C)c(Oc2cnc(NC(=O)[C@@H]3CCCN3)nc2N)cc1I`: “Active”.
On to `COc1cc(C(C)C)c(Oc2cnc(N)nc2NC(=O)c2ccccc2)cc1I`, for which the inhibition result in series [1] was “Active”.
Same read-out and setting: for `COc1cc(C(C)C)c(Oc2cnc(NC(=O)c3ccco3)nc2N)cc1I` the value was “Active”; for `C#Cc1cc(Oc2cnc(NC(C)=O)nc2N)c(C(C)C)cc1OC`, “Active”.
Same read-out and setting: next, `COc1cc(C(C)C)c(Oc2cnc(NC(=O)CCC(=O)O)nc2N)cc1I`: “Active”; `CC[C@@H](C)[C@@H](N)C(=O)Nc1ncc(Oc2cc(I)c(OC)cc2C(C)C)c(N)n1`: “Active”.
On the same count and under the same terms, for `COc1cc(C(C)C)c(Oc2cnc(NC(=O)N3CCN(C)CC3)nc2N)cc1I` the value was “Active”.
Consider `CCCCC(=O)Nc1ncc(Oc2cc(I)c(OC)cc2C(C)C)c(N)n1`, for which, in series [1], the inhibition entry is “Active”.
On the same count and under the same terms, next, `COc1cc(C(C)C)c(Oc2cnc(NC(=O)c3ccccn3)nc2N)cc1I`: “Active”; `COc1cc(C(C)C)c(Oc2cnc(NC(=O)C(C)(C)OC(C)=O)nc2N)cc1I`: “Active”.
The same measure, in the same setting: next, `COc1cc(C(C)C)c(Oc2cnc(N)nc2NC(=O)C2CCN(C)CC2)cc1I`: “Active”; `C#Cc1cc(Oc2cnc(N)nc2NC(=O)CC(C)(C)C)c(C(C)C)cc1OC`: “Active”; `C#Cc1cc(Oc2cnc(NC(=O)CCC)nc2N)c(C(C)C)cc1OC`: “Active”.
Regarding `COc1cc(C(C)C)c(Oc2cnc(NC(=O)CO)nc2N)cc1I`, the inhibition result in series [1] is “Active”.
Still for that read-out and setting: for `COc1cc(C(C)C)c(Oc2cnc(NC(=O)Cc3cccnc3)nc2N)cc1I` the value was “Active”.
On the same count and under the same terms, for `COc1cc(C(C)C)c(Oc2cnc(NC(=O)N3CCC(O)CC3)nc2N)cc1I` the value was “Active”; for `COc1cc(C(C)C)c(Oc2cnc(NC(=O)N3CCC(C)CC3)nc2N)cc1I`, “Active”.
Still for that read-out and setting: for `COc1cc(C(C)C)c(Oc2cnc(NC(=O)c3ccnnc3)nc2N)cc1I` the value was “Active”.
`COc1cc(C(C)C)c(Oc2cnc(NC(C)=O)nc2NC(C)=O)cc1I`: the inhibition entry in series [1] is “Active”.
Consider `COc1cc(C(C)C)c(Oc2cnc(N)nc2NC(=O)c2cccn2C)cc1I`, for which the inhibition result in series [1] was “Active”.
Same read-out and setting: for `COc1cc(C(C)C)c(Oc2cnc(NC(=O)OCC(C)C)nc2N)cc1I` the value was “Active”.
Regarding `COc1cc(C(C)C)c(Oc2cnc(NC(=O)c3cnc[nH]3)nc2N)cc1I`, in series [1], the inhibition entry is “Active”.
Same read-out and setting: next, `COc1cc(C(C)C)c(Oc2cnc(N)nc2NC(=O)C2CCN(C(C)=O)CC2)cc1I`: “Active”; `CCC(C)(C)C(=O)Nc1nc(N)ncc1Oc1cc(I)c(OC)cc1C(C)C`: “Active”.
The same measure, in the same setting: for `COc1cc(C(C)C)c(Oc2cnc(NC(=O)C(N)C(C)C)nc2N)cc1I` (centres undefined) the value was “Active”; for `COc1cc(C(C)C)c(Oc2cnc(NC(=O)[C@H](N)[C@H](C)C(C)C)nc2N)cc1I`, “Active”; for `COc1cc(C(C)C)c(Oc2cnc(NC(=O)c3cnc(C)cn3)nc2N)cc1I`, “Active”.
On the same count and under the same terms, for `COc1cc(C(C)C)c(Oc2cnc(N)nc2NC(=O)c2cnccn2)cc1I` the value was “Active”.
As for `CCC(C)C(=O)Nc1ncc(Oc2cc(I)c(OC)cc2C(C)C)c(N)n1` (centres undefined), the inhibition result in series [1] was “Active”.
The same measure, in the same setting: next, `COc1cc(C(C)C)c(Oc2cnc(NC(=O)C3CCCN3C(C)=O)nc2N)cc1I` (centres undefined): “Active”; `CCC(C)(C)C(=O)Nc1ncc(Oc2cc(I)c(OC)cc2C(C)C)c(N)n1`: “Active”.
Still for that read-out and setting: for `COc1cc(C(C)C)c(Oc2cnc(NC(=O)COC(C)=O)nc2N)cc1I` the value was “Active”; for `COc1cc(C(C)C)c(Oc2cnc(NC(=O)COC(C)=O)nc2NC(=O)COC(C)=O)cc1I`, “Active”; for `COc1cc(C(C)C)c(Oc2cnc(NC(=O)CC(C)C)nc2NC(=O)CC(C)C)cc1I`, “Active”.
Regarding `COc1cc(C(C)C)c(Oc2cnc(NC(=O)c3ccncc3)nc2N)cc1I`, in series [1], the inhibition result is “Active”.
As to `C#Cc1cc(Oc2cnc(NC(=O)c3ccccc3)nc2N)c(C(C)C)cc1OC`, the inhibition entry in series [1] was “Active”.
As to `COc1cc(C(C)C)c(Oc2cnc(NC(=O)N3CCOCC3)nc2N)cc1I`, the inhibition result in series [1] is “Active”.
Same read-out and setting: next, `CCCC(=O)Nc1ncc(Oc2cc(I)c(OC)cc2C(C)C)c(NC(=O)CCC)n1`: “Active”.
On to `C#Cc1cc(Oc2cnc(N)nc2NC(=O)CCC)c(C(C)C)cc1OC`, for which, in series [1], the inhibition result is “Active”.
Still for that read-out and setting: for `COc1cc(C(C)C)c(Oc2cnc(NC(=O)N3CCC(N(C)C)CC3)nc2N)cc1I` the value was “Active”; for `COc1cc(C(C)C)c(Oc2cnc(N)nc2NC(=O)C2CCOCC2)cc1I`, “Active”.
Still for that read-out and setting: next, `CCCC(=O)Nc1ncc(Oc2cc(I)c(OC)cc2C(C)C)c(N)n1`: “Active”.
Still for that read-out and setting: next, `CCOC(=O)Nc1ncc(Oc2cc(I)c(OC)cc2C(C)C)c(N)n1`: “Active”.
With `COc1cc(C(C)C)c(Oc2cnc(N)nc2NC(=O)[C@@H]2CCCO2)cc1I`, the inhibition result in series [1] is “Active”.
On the same count and under the same terms, for `C#Cc1cc(Oc2cnc(NC(=O)CC(C)(C)C)nc2N)c(C(C)C)cc1OC` the value was “Active”; for `COc1cc(C(C)C)c(Oc2cnc(NC(=O)c3cnccn3)nc2N)cc1I`, “Active”.
`COCCOCC(=O)Nc1nc(N)ncc1Oc1cc(I)c(OC)cc1C(C)C`: in series [1], the inhibition result was “Active”.
Same read-out and setting: for `COc1cc(C(C)C)c(Oc2cnc(N)nc2NC(=O)C(C)(C)C)cc1I` the value was “Active”; for `COc1cc(C(C)C)c(Oc2cnc(NC(=O)C(C)(C)O)nc2N)cc1I`, “Active”.
`COc1cc(C(C)C)c(Oc2cnc(NC(=O)N3CCCCC3)nc2N)cc1I`: the inhibition entry in series [1] was “Active”.
The same measure, in the same setting: next, `CCCCC(=O)Nc1ncc(Oc2cc(I)c(OC)cc2C(C)C)c(NC(=O)CCCC)n1`: “Active”.

(Values after ChEMBL document CHEMBL3714725, “Diaminopyrimidines as P2X3 and P2X2/3 modulators” (2010).)
